# Assay results: patent publication US4789630A, “Ionic compounds containing the cationic meriquinone of a benzidine” (Cetus Corporation, priority 1986, dated 1988)
# Legend:
# horseradish peroxidase = target: T1, horseradish peroxidase (Armoracia rusticana, UniProt P00433); assay: Horseradish peroxidase activity with TMB as chromogenic substrate, pH dependence; format: biochemical; settings: from pH 5.0 to pH 4.0
# T1 sequence (P00433 31-353): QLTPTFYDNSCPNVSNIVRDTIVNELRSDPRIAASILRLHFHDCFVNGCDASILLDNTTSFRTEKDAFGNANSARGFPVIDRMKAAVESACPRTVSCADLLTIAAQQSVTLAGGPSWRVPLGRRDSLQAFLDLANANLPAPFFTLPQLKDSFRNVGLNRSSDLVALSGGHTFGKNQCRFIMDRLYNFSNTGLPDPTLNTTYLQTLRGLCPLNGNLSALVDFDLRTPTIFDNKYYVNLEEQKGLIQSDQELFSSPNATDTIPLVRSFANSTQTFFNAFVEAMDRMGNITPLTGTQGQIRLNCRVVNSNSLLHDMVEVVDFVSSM
# Protocol: (§1) Regarding step (e), three independent variables (apart from temperature) most strongly influence horseradish […] activity with TMB as chromogenic substrate: TMB concentration, H2 O2 concentration, and pH. […] For relatively short assays (0-10 min.), however, suicide is not severe, and initial velocity is the most important indicator of enzyme activity. Initial velocity rises monotonically with TMB concentration, and is almost proportional to TMB concentration at a H2 O2 concentration of greater than 2 mM. The pH dependence of initial velocity at constant TMB concentration indicates an optimum pH at 4. The pH dependence of TMB solubility indicates a monotonic and increasingly steep rise as the pH is lowered from 5. […] Therefore, a pH of 3.5-4.5 is the preferred pH range for step (e), more preferably pH 4.0, if the substituted benzidine is TMB and the oxidation catalyst is horseradish peroxidase. The optimum horseradish peroxidase assay conditions are at room temperature, pH 4.0, 0.4 mM (saturating) TMB, and 2-3 mM H2 O2.
# [1] = Solubility of TMB in a series of buffers; format: physicochemical; settings: for solubility: read-out: Solubility at 30.9 C
# Protocol: These are stoichiometric concentrations, uncorrected for ionization at pH 5.0. […] Each wash involved a total volume of 1.5 ml (pellet volume of about 0.3 ml) in an Eppendorf polypropylene centrifuge tube. […] At 30-60 min intervals, the crystal suspensions were spun 3-5 min at room temperature in a Fisher micro-centrifuge. […] After scanning, the solutions and pellets were returned to the equilibration tubes for renewed shaking. Repeat measurements were taken until precision within 20% was obtained. […] Care was taken to assure that solid meriquinone salt and solid TMB were present in each tube. Excess (saturating) TMB was added to suppress the dissociation of meriquinone charge-transfer complex into component quinone diimine and TMB (see FIG. 1). […] If the concentration was too high to measure undiluted with a 1 cm light path, the scan was performed on an undiluted sample with a 2 mm light path or an appropriately diluted sample (later discarded) with a 1 cm light path.
# [2] = Crystal nucleation and filter trapping of the fumarate salt of the meriquinone of TMB; format: physicochemical; settings: 10 mM Na fumarate, pH 3.92, 25 C
# Protocol: (§2) Stock HRP solutions were prepared in 0.10M NaCl, 1.0 mM Na phosphate, pH 6.0 to be 22 ng/ml or 0.43 ng/ml in HRP, shortly before assay, HRP-catalyzed oxidation of TMB by H2 O2 was initiated by adding 20 or 2.0 μl of […] or 20 or 10 μl of 0.43 ng/ml HRP to 1.00 ml of the assay solution at 25° C. […] At the end of each reaction interval, replicate 100 μl volumes of reaction mixture were spotted on a Nuclepore polycarbonate filter (3 μm pore size) and dried by gentle suction to give deposits 3-4 mm in diameter.
# The initial velocity was transformed from units of absorbance per time to reciprocal time (turnover number) by dividing by the meriquinone extinction coefficient, 3.9×10^4 M^-1 cm^-1, and by the HRP concentration. […] The transition time is the time to crystal nucleation.
# [3] = target: T2, horseradish peroxidase (HRP) (Armoracia rusticana, UniProt P00433); assay: Kinetics of TMB oxidation by H2O2 and HRP in pH 3.9 fumarate-EDTA buffer; format: biochemical; settings: 0.31 mM TMB, 3.0 mM H2O2, 10 mM Na fumarate, 1 mM EDTA, pH 3.92, 25 C
# T2 sequence (P00433 31-353): T1 sequence (P00433 31-353)
# Protocol: as §2, with “At the two lower HRP concentrations (0.22 and 0.11 pM in the cuvette), the reaction was followed for 30 minutes. At the end of” for “At the end of”
# The initial velocity was transformed from units of absorbance per time to reciprocal time (turnover number) by dividing by the meriquinone extinction coefficient, 3.9×10^4 M^-1 cm^-1, and by the HRP concentration. […] The transition time is the time to crystal nucleation. […] The A652 of the 30 minute reaction mixture for 0.11 pM HRP was below 0.03, the approximate visual threshold, so that filtration trapping served to concentrate the signal to improve visibility. […] In addition, a white membrane would offer sharper visual contrast than the slightly yellow, translucent, polycarbonate. The transition time has a very shallow HRP concentration dependence, so that even lower HRP concentrations are unlikely to require assay times longer than 30 minutes in order to permit crystallization to occur. The transition time probably could be lowered by adding anionic latex microspheres which might serve to nucleate crystallization.
# [4] = pH dependence of TMB solubility (saturating TMB); format: physicochemical; settings: room temperature, pH 4.0; read-out: saturating TMB concentration
# Protocol: as §1
# [5] = Solubilities of salts of the meriquinone of TMB (equilibration of solid salt with buffer, A650)
# Protocol: These are stoichiometric concentrations, uncorrected for ionization at pH 5.0. […] Each wash involved a total volume of 1.5 ml (pellet volume of about 0.3 ml) in an Eppendorf polypropylene centrifuge tube. […] At 30-60 min intervals, the crystal suspensions were spun 3-5 min at room temperature in a Fisher micro-centrifuge. […] After scanning, the solutions and pellets were returned to the equilibration tubes for renewed shaking. Repeat measurements were taken until precision within 20% was obtained. […] Care was taken to assure that solid meriquinone salt and solid TMB were present in each tube. Excess (saturating) TMB was added to suppress the dissociation of meriquinone charge-transfer complex into component quinone diimine and TMB (see FIG. 1). […] These spectra contained absorbance peaks at 370 and 650 nm characteristic of meriquinone and a very small shoulder at 450 nm assigned to quinone diimine; a much larger peak near 280 nm confirmed the presence of excess TMB. […] If the concentration was too high to measure undiluted with a 1 cm light path, the scan was performed on an undiluted sample with a 2 mm light path or an appropriately diluted sample (later discarded) with a 1 cm light path.
# Solubilities at 0 C. were determined for all solutions in which they were high enough for accurate measurement.
# The dashed lines were visually fitted. […]
compound,measurement,setting,value
"Cc1cc(-c2cc(C)c(N)c(C)c2)cc(C)c1N [TMB, 3,3',5,5'-tetramethylbenzidine]",increase of initial velocity at saturating TMB,horseradish peroxidase,four-fold increase
same,Solubility Ratio: 30.9 C/0.0 C,"[1]; acetate buffer, pH 5.0, 0.10M",2.4
same,solubility,"[1]; aqueous buffer, acetate buffer, pH 5.0, 0.10M",170 µM
same,solubility,"[1]; aqueous buffer, citrate buffer, pH 5.0, 0.10M",170 µM
same,solubility,"[1]; aqueous buffer, glutarate buffer, pH 5.0, 0.10M",170 µM
same,solubility,"[1]; aqueous buffer, maleate buffer, pH 5.0, 0.10M",210 µM
same,solubility,"[1]; aqueous buffer, malonate buffer, pH 5.0, 0.10M",160 µM
same,solubility,"[1]; aqueous buffer, phosphate buffer, pH 5.0, 0.10M",160 µM
same,Solubility Ratio: 30.9 C/0.0 C,"[1]; citrate buffer, pH 5.0, 0.10M",2.3
same,Solubility Ratio: 30.9 C/0.0 C,"[1]; fumarate buffer, pH 5.0, 0.10M",3.9
same,solubility,"[1]; fumarate buffer, pH 5, aqueous buffer",160 µM
same,Solubility Ratio: 30.9 C/0.0 C,"[1]; glutarate buffer, pH 5.0, 0.10M",2.0
same,Solubility Ratio: 30.9 C/0.0 C,"[1]; maleate buffer, pH 5.0, 0.10M",7.6
same,Solubility Ratio: 30.9 C/0.0 C,"[1]; malonate buffer, pH 5.0, 0.10M",1.8
same,Solubility Ratio: 30.9 C/0.0 C,"[1]; oxalate buffer, pH 5.0, 0.10M",12
same,solubility,"[1]; oxalate buffer, pH 5, aqueous buffer",160 µM
same,Solubility Ratio: 30.9 C/0.0 C,"[1]; phosphate buffer, pH 5.0, 0.10M",2.0
same,Solubility Ratio: 30.9 C/0.0 C,"[1]; sulfate buffer, pH 5.0, 0.10M",1.9
same,solubility,"[1]; sulfate buffer, pH 5, aqueous buffer",150 µM
same,A652 at Transition,[2]; [HRP] 0.11 x 10^-12 M,0.025
same,Transition Time (time to crystal nucleation),[2]; [HRP] 0.11 x 10^-12 M,10 min
same,A652 at Transition,[2]; [HRP] 0.21 x 10^-12 M,0.04
same,Transition Time (time to crystal nucleation),[2]; [HRP] 0.21 x 10^-12 M,10 min
same,A652 at Transition,[2]; [HRP] 1.1 x 10^-12 M,0.08
same,Transition Time (time to crystal nucleation),[2]; [HRP] 1.1 x 10^-12 M,3 to 4 min
same,A652 at Transition,[2]; [HRP] 11 x 10^-12 M,0.25-0.50
same,Transition Time (time to crystal nucleation),[2]; [HRP] 11 x 10^-12 M,1 to 2 min
same,Vinitial,[3]; [HRP] 0.11 x 10^-12 M,4.4 × 10^-5 WA652 S^-1
same,Vinitial,[3]; [HRP] 0.21 x 10^-12 M,8.0 × 10^-5 WA652 S^-1
same,Vinitial,[3]; [HRP] 1.1 x 10^-12 M,4.1 × 10^-4 WA652 S^-1
same,Vinitial,[3]; [HRP] 11 x 10^-12 M,4.2 × 10^-3 WA652 S^-1
same,solubility,[4],400 µM
Maleate,Solubility Ratio: 25.2 C/0.0 C,"[5]; averaged for the different stated concentrations of each salt, buffers pH 5.0 at room temperature",8.1
same,Molar Solubility in 0.1 M Anion,"[5]; extrapolated, pH 5.0, 10% ethanol, 0.10M sodium acetate, 25.2 C",4 × 10^-8 Molar
